Data from US20250242064A1, “CXCR4-TARGETING COMPOUNDS, AND METHODS OF MAKING AND USING THE SAME” (PROVINCIAL HEALTH SERVICES AUTHORITY, priority 2022, published 2025).
Where two headings read alike, the source gives them in different places. Where a SMILES comes first, the peptide text is derived from it. Bridges are numbered along the chain shown (N, C = ends). Side-chain parts run from the residue outwards. [ ]: non-standard residue; d: D form. The star is where a group is joined. DOTA = O=C(O)CN1CCN(CC(=O)O)CCN(CC(=O)*)CCN(CC(=O)O)CC1; Butanoyl(4-(4-MeO-phenyl)) = COc1ccc(CCCC(=O)*)cc1; 2Nal = N[C@@H](Cc1ccc2ccccc2c1)C(=O)O; Lys(iPr) = CC(C)NCCCC[C@H](N)C(=O)O; Cya = N[C@@H](CS(=O)(=O)O)C(=O)O

Tests used:
[1] = target: T1, CXCR4 (Homo sapiens, UniProt P61073); assay: Competitive binding assay, [125I]SDF-1α displacement on CHO:CXCR4 cells; parameters: expressed in transfected cells; host or cells: CHO:CXCR4 cells; details: [125I]SDF-1α 0.01 nM, 1 h at 27° C., read-out: IC50 (nM), binding affinity for hCXCR4
Method: CHO:CXCR4 cells were seeded at a density of 1×10^5 cells/well in 24-well poly-D-lysine coated plates (Corning BioCoat) and incubated with [^125I]SDF-1α (0.01 nM, PerkinElmer) and competing nonradioactive ligands ([…]). The cells, radioligand, and competing peptides were incubated for 1 h at 27° C. with moderate shaking. Following the incubation period, the supernatant was aspirated, followed by three washes with 1 mL of ice-cold PBS. Cells were harvested with 200 μL of trypsin and counted on a y counter. Data were plotted in GraphPad Prism 7 to determine IC50 values (GraphPad Software, Inc., La Jolla, CA). The values are reported as mean±standard deviation.
Target sequence in this assay (P61073 whole entry): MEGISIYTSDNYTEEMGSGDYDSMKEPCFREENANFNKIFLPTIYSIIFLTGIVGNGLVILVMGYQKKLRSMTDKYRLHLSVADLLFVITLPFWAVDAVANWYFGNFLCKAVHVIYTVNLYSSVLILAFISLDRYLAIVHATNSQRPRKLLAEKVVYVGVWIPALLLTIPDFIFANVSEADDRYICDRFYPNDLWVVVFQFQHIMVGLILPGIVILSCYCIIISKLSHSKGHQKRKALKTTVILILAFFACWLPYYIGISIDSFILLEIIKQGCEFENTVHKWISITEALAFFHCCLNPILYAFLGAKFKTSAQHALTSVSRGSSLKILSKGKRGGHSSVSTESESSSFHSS

[2] = target: T1, CXCR4; details: reported; read-out: IC50, block of SDF-1a binding to CXCR4; cited from earlier work
Target sequence in this assay (P61073 whole entry, species assumed): as the sequence (P61073 whole entry) above

[3] = system: non-Hodgkin lymphoma, renal cell carcinoma, lung cancer, colorectal cancer, and breast cancer xenograft models; details: reported; cited from earlier work
[4] = system: small cell lung cancer patients; details: reported; cited from earlier work

| Compound | IC50 [1] [nM] | IC50 [2] [nM] | inhibition of growth of xenograft models [3] | treatment efficacy with carboplatin/etoposide chemotherapy [4] |
| --- | --- | --- | --- | --- |
| COc1ccc(CCCC(=O)NCCCC[C@H](NC(=O)[C@H](CCCCNC(C)C)NC(=O)[C@H]2CCC(=O)N[C@@H](CCCCNC(=O)[C@H](CS(=O)(=O)O)NC(=O)CN3CCN(CC(=O)O)CCN(CC(=O)O)CCN(CC(=O)O)CC3)C(=O)N[C@@H](Cc3ccc(O)cc3)C(=O)N[C@@H](CCCCNC(C)C)C(=O)N[C@H](CCCNC(=N)N)C(=O)N[C@@H](Cc3ccc4ccccc4c3)C(=O)N[C@H](C)C(=O)N2)C(N)=O)cc1 [BL34L8] (K([Cya-DOTA])Y[Lys(iPr)][dR][2Nal][dA][dE][Lys(iPr)]K(Butanoyl(4-(4-MeO-phenyl)))-NH2; lactam N-7) | > 100 |  |  |  |
| cyclo[Phe-Tyr-Lys(iPr)-D-Arg-2-Nal-Gly-D-Glu]-Lys(iPr)-NH2 [LY2510924] |  | 0.079 | able to inhibit growth | failed to improve treatment efficacy |
